Read-outs that look alike come from different tables or passages of the source.
Experiments:
[1] = test system: S. enteritidis; assay: Reduction of S. enteritidis in water treated with organic acids and SDS; type: cell-based, Salmonella enteritidis; settings: for S. enteritidis counts: water, 21° C.
[2] = test system: L. monocytogenes; type: cell-based, Listeria monocytogenes; settings: 21° C.
[3] = test system: Feline Calicivirus (FCV); assay: Inactivation of FCV by levulinic acid plus SDS in solution, plaque assay; settings: 21° C., 1 min
[4] = test system: Murine norovirus (MNV-1); assay: Inactivation of MNV-1 by levulinic acid plus SDS in solution, plaque assay; settings: 21° C., 1 min

CCCCCCCCCCCCOS(=O)(=O)[O-].[Na+] [0.05% SDS, sodium dodecyl sulfate]
S. enteritidis counts ([1]; 0 min): 7.1 log CFU/ml | S. enteritidis counts ([1]; 2 min): 7.0 log CFU/ml | S. enteritidis counts ([1]; 5 min): 7.2 log CFU/ml | S. enteritidis counts ([1]; 10 min): 7.1 log CFU/ml | S. enteritidis counts ([1]; 20 min): 7.2 log CFU/ml | S. enteritidis counts ([1]; 30 min): 7.1 log CFU/ml | Salmonella reduction in water ([1]; within 30 minutes): did not reduce Salmonella cell numbers | L. monocytogenes counts ([2]; 0 min): 6.6 ± 0.3 log CFU/ml | L. monocytogenes counts ([2]; 2 min): 6.4 ± 0.1 log CFU/ml | L. monocytogenes counts ([2]; 5 min): 6.0 ± 0.1 log CFU/ml | L. monocytogenes counts ([2]; 10 min): 5.0 ± 0.3 log CFU/ml | L. monocytogenes counts ([2]; 20 min): 3.8 ± 0.2 log CFU/ml | L. monocytogenes counts ([2]; 30 min): 3.3 ± 0.1 log CFU/ml | Log Reduction PFU/ml (standard deviation), FCV ([3]; sulfate): −0.12 (±0.23) log PFU/ml | Log Reduction PFU/ml (standard deviation), MNV-1 ([4]; sulfate): −0.13 (±0.26) log PFU/ml

CCCCCCCCCCCCOS(=O)(=O)[O-].[Na+] [0.5% SDS, sodium dodecyl sulfate]
Log Reduction PFU/ml (standard deviation), FCV ([3]; sulfate): −0.09 (±0.27) log PFU/ml | Log Reduction PFU/ml (standard deviation), MNV-1 ([4]; sulfate): 0.13 (±0.20) log PFU/ml

CC(=O)O [0.5% acetic acid, acetic acid]
Salmonella reduction in water [1]: 0.7 log CFU/ml

CC(=O)CCC(=O)O [0.5% levulinic acid, levulinic acid]
Log Reduction PFU/ml (standard deviation), FCV [3]: 0.09 (±0.16) log PFU/ml | Log Reduction PFU/ml (standard deviation), MNV-1 [4]: 0.09 (±0.38) log PFU/ml

CCCCCCCCCCCCOS(=O)(=O)[O-].[Na+] [1% SDS, sodium dodecyl sulfate]
Log Reduction PFU/ml (standard deviation), FCV ([3]; sulfate): −0.05 (±0.18) log PFU/ml | Log Reduction PFU/ml (standard deviation), MNV-1 ([4]; sulfate): 0.03 (±0.12) log PFU/ml

Reference: patent US20120121679A1, “VIRICIDAL AND MICROBICIDAL COMPOSITIONS AND USES THEREOF” (University of Georgia Research Foundation, Inc., priority 2009, published 2012)
